In brackets after ≈: the same amount, converted by molar mass.
details: buffer; pH 7.4; 6.0 h; 150.0 µM

Compared with COc1ccc(-c2cc3nccn3c(Nc3ncccc3C(N)=O)n2)cc1OC, COc1ccc(-c2c(-c3cc(C(=O)O)ccn3)ncn2C)cc1 is higher in solubility kinetic: 24.2 µg/mL (≈ 62.1 µM) for the first, > 46 µg/mL for the second.

Going from O=C1Nc2ccccc2/C1=C/c1ccnc2ccccc12 to O=C1c2ccccc2C2=Nc3ccccc3SC(c3ccc(Cl)cc3)C12 (stereo not given), the solubility kinetic falls from 3.07 µg/mL (≈ 11.3 µM) to < 1 µg/mL.

Going from CCc1ccc(-n2nnc(-c3nsc(NC(=O)c4ccccc4Cl)n3)c2C)cc1 to Cc1cnc(-c2ccccc2OC(C)C)nc1NCc1ccc(-n2ccnn2)cc1, the solubility kinetic rises from < 1 µg/mL to 41.4 µg/mL (≈ 103 µM).

First: O=[S+]([O-])(Nc1ccc2ccccc2c1)c1ccc(NCc2ccc(Cl)cc2O)cc1
Second: O=[S+]([O-])(Nc1nccs1)c1ccc(NCc2cc(F)cc(Cl)c2O)cc1
The solubility kinetic of the first is lower: < 1 µg/mL for the first, 18.5 µg/mL (≈ 44.7 µM) for the second.

Going from COc1ccc(NC2CCCN(C(=O)CCc3ccccc3F)C2)cc1 (stereo not given) to COc1ccc(-c2nc(Nc3ccc(F)c(F)c3)c3ccccc3n2)cc1, the solubility kinetic falls from 41.3 µg/mL (≈ 116 µM) to < 1 µg/mL.

Going from O=C(CCCN1CCC(n2c(=O)[nH]c3ccccc32)CC1)c1ccc(F)cc1 to COc1ccccc1N1CCN(CCN(C(=O)c2ccc(I)cc2)c2ccccn2)CC1, the solubility kinetic rises from 33.3 µg/mL (≈ 87.2 µM) to 53.8 µg/mL (≈ 99.1 µM) (1.6-fold).

CC1=C(C(=O)Nc2ccccc2Cl)C(c2ccccc2Br)N=C(Nc2nc3ccccc3o2)N1 (stereo not given) and Cc1ccc(S(=O)(=O)Nc2ccccc2C(=O)Nc2nc(-c3ccccc3)c(C)s2)cc1 cannot be ordered by solubility kinetic: < 1 µg/mL for the first, < 1 µg/mL for the second.

Fc1ccc(Nc2nc(-c3ccncc3F)nc3ccccc23)cc1F and Cc1cc(-c2nc(Nc3ccc(F)c(F)c3)c3ccccc3n2)cc(C)n1 cannot be ordered by solubility kinetic: < 1 µg/mL for the first, < 1 µg/mL for the second.

Compared with COc1ccc(-c2csc(NC(=O)c3ccncc3NS(=O)(=O)c3ccc(C)cc3)n2)cc1, Cc1noc(C)c1S(=O)(=O)Nc1cnccc1C(=O)Nc1nc(-c2ccccc2)cs1 is higher in solubility kinetic: 54.8 µg/mL (≈ 114 µM) for the first, > 66 µg/mL for the second.

First: N#Cc1cccc(-c2csc(N3CCC(C(N)=O)CC3)n2)c1
Second: NC(=O)C1CCN(c2nc(-c3ccccc3N)cs2)CC1
The solubility kinetic of the first is 2.7-fold lower: 10.7 µg/mL (≈ 34.3 µM) for the first, 29.4 µg/mL (≈ 97.1 µM) for the second.

Compared with N#Cc1nc(-c2cccc3ccccc23)oc1NC1CNC1, CCCNc1oc(-c2cccc3ccccc23)nc1C#N is lower in solubility kinetic: 9.62 µg/mL (≈ 33.1 µM) for the first, < 1 µg/mL for the second.

Compared with Cc1nc(N)nc2ccccc12, Cc1cccc(Nc2nc(NCc3ccco3)c3ccccc3n2)c1.Cl is lower in solubility kinetic: > 24 µg/mL for the first, < 1 µg/mL for the second.

COc1cc2nccc(Oc3ccc(NC(=O)Nc4cc(C)on4)c(Cl)c3)c2cc1OC and COc1ccc(Cn2c(CCC(=O)Nc3cc(C)cc(C)c3)nc3cccnc32)cc1 cannot be ordered by solubility kinetic: < 1 µg/mL for the first, < 1 µg/mL for the second.

C/C=C1/CN2CC[C@@]34c5ccccc5N(C)[C@@H]3[C@@H]2C[C@@H]1[C@H]4C(=O)OC and NC(=O)C1CCN(c2nc(-c3cc4ccccc4o3)cs2)CC1 cannot be ordered by solubility kinetic: > 33 µg/mL for the first, > 48 µg/mL for the second.

CC[C@H](NC(=O)[C@H](C)NC)C(=O)N1C[C@@H](O)C[C@H]1Cc1c(-c2[nH]c3cc(F)ccc3c2C[C@@H]2C[C@H](O)CN2C(=O)[C@H](CC)NC(=O)[C@H](C)NC)[nH]c2cc(F)ccc12 and CCC[C@@H]1CN(C(=O)c2ccc(-c3ccc(C)o3)cc2)C[C@H]1NC(C)=O cannot be ordered by solubility kinetic: 75.2 µg/mL (≈ 93.2 µM) for the first, > 52 µg/mL for the second.

Going from CC(=O)Nc1ccc(CN2CCc3nc(C(C)C)nc(-c4ccc(Cl)cc4)c3CC2)cc1 to O=C(Nc1nnc(-c2ccc(Cl)cc2)o1)c1ccc(Cl)c(Cl)c1, the solubility kinetic falls from 33.1 µg/mL (≈ 73.7 µM) to < 1 µg/mL.

Cc1sc2c(c1C)C(c1ccc(Cl)cc1)=N[C@@H](CC(=O)Nc1ccc(OCCOCCOCCOCCNc3cccc4c3C(=O)N(C3CCC(=O)NC3=O)C4=O)cc1)c1nnc(C)n1-2 (stereo not given in full) and CC1(C)CCC(CN2CCN(c3ccc(C(=O)NS(=O)(=O)c4ccc(NCC5CCOCC5)c([N+](=O)[O-])c4)c(Oc4cnc5[nH]ccc5c4)c3)CC2)=C(c2ccc(Cl)cc2)C1 cannot be ordered by solubility kinetic: < 1 µg/mL for the first, < 1 µg/mL for the second.

Compared with O=c1[nH]c(C2CCCN(CC3CCCCC3)C2)nn1-c1ccc(Cl)cc1 (stereo not given), O=c1[nH]c(C2CCN(CC3CCCCC3)CC2)nn1Cc1ccccc1 is higher in solubility kinetic: < 1 µg/mL for the first, > 52 µg/mL for the second.

Going from CCOc1ccc(-c2csc(N3CCC(C(N)=O)CC3)n2)cc1 to O=C(C1CCN(c2nc(-c3ccc(Br)cc3)cs2)CC1)N1CCNCC1, the solubility kinetic rises from 11 µg/mL (≈ 33.2 µM) to > 64 µg/mL.

Compared with OCc1cccc(-c2cc(-c3cccnc3)c3cncn3c2)c1, CCn1ncc(NC(=O)Cn2ncc3cc(-c4cccc(OC)c4)ccc32)n1 is lower in solubility kinetic: 18.5 µg/mL (≈ 61.4 µM) for the first, < 1 µg/mL for the second.

Going from Cc1cc(-c2nnc3n2CCCCC3)c(C)n1-c1cccc(Cl)c1 to CCOC(=O)c1ccc(-n2cnc3cc(C(=O)N4CCCCC4)ccc32)cc1, the solubility kinetic rises from 36.5 µg/mL (≈ 107 µM) to > 56 µg/mL.

Going from CC(C)(C)NS(=O)(=O)c1ccc(-c2ccc3[nH]nc(N)c3c2)cc1 to CCOc1ccccc1CNS(=O)(=O)c1ccc(-c2cnc(C3CC3)o2)cc1, the solubility kinetic falls from > 51 µg/mL to < 1 µg/mL.

First: CCN(c1ccccc1)S(=O)(=O)c1c(C)nc2scc(C)n2c1=O
Second: CN(C)c1cccc(-c2c3c(=O)n(-c4ccccc4Cl)[nH]c3cc(=O)n2C)c1
The solubility kinetic of the first is higher: > 54 µg/mL for the first, 46.5 µg/mL (≈ 118 µM) for the second.

Going from Fc1cnc(-c2ccccc2C(F)F)nc1NCC1CCN(c2cnccn2)C1 (stereo not given) to Cc1nc(NC2CCCCC2)c2nc(-c3ccccc3)n(CCN(C)C)c2n1, the solubility kinetic rises from 42.2 µg/mL (≈ 105 µM) to > 56 µg/mL.

Compared with NC(=O)COc1ccc(C2CC(=O)Nc3n[nH]c(Nc4ccccc4)c32)cc1 (stereo not given), O=C(Nc1cccc(OC(F)(F)F)c1)c1cc(-c2ccc[nH]2)n[nH]1 is 3.9-fold lower in solubility kinetic: 41.7 µg/mL (≈ 110 µM) for the first, 10.8 µg/mL (≈ 32 µM) for the second.

Going from COc1ccc(NC(=O)c2[nH]c(C)c(C(C)=O)c2C)cc1S(=O)(=O)Nc1ccc(C#N)cc1 to CCc1ccc(NC(=O)c2[nH]c(C)c(C(C)=O)c2C)cc1S(=O)(=O)Nc1cccc(C#N)c1, the solubility kinetic falls from 4.06 µg/mL (≈ 8.7 µM) to 1.67 µg/mL (≈ 3.59 µM) (2.4-fold).

Cc1ccc(S(=O)(=O)Nc2ccccc2N2CCCCC2)cc1 and COc1cccc(CNc2ccc(S(=O)(=O)Nc3cccc4ccccc34)cc2)c1O cannot be ordered by solubility kinetic: < 1 µg/mL for the first, < 1 µg/mL for the second.

Going from CC1=Nc2cc(C(=O)NCc3ccccc3Cl)ccc2Sc2c(C)ccc(C)c21 to CCc1ccc2ncc(C(=O)c3ccc(C)c(C)c3)c(N3CCC(C(N)=O)CC3)c2c1, the solubility kinetic rises from < 1 µg/mL to 2.27 µg/mL (≈ 5.47 µM).

Compared with Cc1c(-c2cccc(NC(=O)c3ccc(F)c(F)c3)c2)nc2ncccn12, Cc1ccc(C(=O)Nc2ccc(CN3CCN(C)CC3)c(C(F)(F)F)c2)cc1C#Cc1cnc2cccnn12 is lower in solubility kinetic: 7.47 µg/mL (≈ 20.5 µM) for the first, < 1 µg/mL for the second.

Cc1cnc(NC(=O)c2ccc(-c3cccc([N+](=O)[O-])c3)o2)s1 and CCc1ccccc1C(=O)N1CCc2cc(-c3nc(NC(=O)Cc4ccc5c(c4)OCO5)sc3C)ccc21 cannot be ordered by solubility kinetic: < 1 µg/mL for the first, < 1 µg/mL for the second.

Compared with NC(=O)N1CCCC(C(=O)N2CCCN(c3ccc(F)cc3)CC2)C1 (stereo not given), COc1ccccc1Nc1ccnc(N2CCN(C(=O)c3ccccc3Cl)CC2)n1 is lower in solubility kinetic: > 51 µg/mL for the first, 1.59 µg/mL (≈ 3.75 µM) for the second.

Going from COc1cccc(CNCc2cccn2-c2nnc(N3CCN(c4ccccc4)CC3)s2)c1 to COc1ccc(-n2nc(C)c([C@@H]3C=C[C@@H](NCc4ccc(F)cc4)C3)c2C)cc1, the solubility kinetic rises from 5.15 µg/mL (≈ 11.2 µM) to 42 µg/mL (≈ 107 µM) (8.2-fold).

First: Nc1ncnc2c1ncn2[C@H]1O[C@@H](CO)[C@@H](O)[C@H]1N
Second: Cc1cccc(-c2noc([C@@H]3Cc4nc[nH]c4CN3)n2)c1
The solubility kinetic of the first is higher: > 39 µg/mL for the first, 18.3 µg/mL (≈ 65 µM) for the second.

COc1ccc(O)c2c(=O)c3c(OC)cc4c(c3oc12)C1C=COC1O4 (stereo not given) and CCCN1C(CC(C)C)=NS(=O)(=O)c2cc(NC(=O)c3cccs3)ccc21 cannot be ordered by solubility kinetic: < 1 µg/mL for the first, < 1 µg/mL for the second.

N=c1c2ccccc2nnn1-c1ccc(C(F)(F)F)cc1 and CSc1ccc(/C=C/c2nc3ccccc3n2S(=O)(=O)c2cccc(Cl)c2)cc1 cannot be ordered by solubility kinetic: < 1 µg/mL for the first, < 1 µg/mL for the second.
